Data from US6660690B2, “Seed treatment with combinations of insecticides” (priority 2000, dated 2003).

Key:
black cutworm larvae = assay: Black cutworm feeding damage on corn grown from treated seed or in treated soil (Reference Example 1); type: in vivo; conditions: for Plant Defol. 3 DAI / Plant Defol. 7 DAI / Plant Defol. 10 DAI: rating 1=no damage, 10=complete defoliation
Method: (§1) A lambda-cyhalothrin seed treatment formulation was prepared by diluting the WARRIOR® T insecticide (Zeneca Ag Products, Wilmington, Del.), which contains 11.4% lambda-cyhalothrin as the active ingredient, into water as a carrier. This formulation was applied for one minute at room temperature to twenty-five grams of Pioneer corn seed (Cultivar PN3394) in a rotostatic seed treater at a rate of 125 g, 250 g or 500 g active ingredient (Al) to 100 kg seed. The treated seeds were allowed to sit uncapped for four to twenty-four hours before planting.
(§2) Treated and untreated seeds (Pioneer hybrid PN3394) were planted in a soil mix consisting of Dupo silt loam, 30% Perlite, 20% coarse sand (WB-10 grade) in six groups of tubs (20 in. L×15 in. W×8 in. D). Twelve seeds were planted per tub and three tubs were planted for each treatment regimen. Soil applications of FORCE® 3GR, which contains 3% tefluthrin granule as the active ingredient, were used for two sets of tubs containing untreated seeds. The FORCE 3GR was applied either in-furrow or incorporated into a 5 inch band on the soil surface at the time of planting. The tubs were overhead irrigated until the plants were infested with black cutworm larvae.
The rate of application for the FORCE 3GR was reported in units of grams of the active ingredient per hectare (g/ha), while the rate of application of the WARRIOR T to the seeds was reported in units of grams of the active ingredient per 100 kilograms of the seeds (g/100 kg). Although the conversion of one of these units to the other will vary somewhat according to the type of seed that is being used, the size and weight of the seed, and the density of planting that is used—among other things—an approximate conversion for corn seed can be carried out as follows. Assuming a seed application rate of lambda cyhalothrin of, for example, 125 g/100 kg of seed and a planting density of 15 lbs seed/ac, about 14.7 acres can be planted with 100 kg of the seed. This is an effective application rate of about 8.5 g of lambda cyhalthrin per acre. At 2.47 ac/ha, the seed treatment level of 125 g/100 kg is approximately equivalent to a surface banding treatment at about 21 g/ha.
The corn plants were infested at 12 DAP, which corresponds to late growth stage V1 by placing two black cutworm larvae at ¾ instar on the soil surface near the base of the plant. Plants were rated 3, 7 and 10 days after infestation (DAI) for the number of cut plants, as well as damage from leaf feeding. The percent stand reduction due to plant cutting was calculated by dividing the number of cut plants into the number of plants present at infestation. The foliar feeding injury was evaluated using a rating scale of 1=no damage and 10=complete defoliation.

corn plants = assay: Vigor rating of corn plants at 12 DAP before infestation (indication of phytotoxicity); type: in vivo; conditions: rating 1=extremely low vigor, 10=highest
Method: as §1, §2
At twelve days after planting (DAP) but before infestation, the overall health of each plant was rated by looking at emergence, height and appearance. This vigor rating gives an indication of any phytotoxicity from the seed or soil treatment. A rating of 1 indicates extremely low vigor while 10 is the highest vigor rating.

Cc1c(F)c(F)c(COC(=O)[C@@H]2[C@H](/C=C(\Cl)C(F)(F)F)C2(C)C)c(F)c1F (racemic) [Tefluthrin, (2,3,5,6-tetrafluoro-4-methylphenyl)-methyl-(1 alpha, 3 alpha)-(Z)-(±)-3-(2-chloro-3,3,3-trifluoro-1-propenyl)-2,2-dimethylcyclopropanecarboxylate] was tested, and the “% Stand Reduct'n 3 DAI” value (black cutworm larvae; soil granule banded 30 g/ha) was 0.0%, the “Plant Defol. 3 DAI” value (black cutworm larvae; soil granule banded 30 g/ha) was 1.7 and the “% Stand Reduct'n 7 DAI” value (black cutworm larvae; soil granule banded 30 g/ha) was 0.0%. For the same compound, the “Plant Defol. 7 DAI” value (black cutworm larvae; soil granule banded 30 g/ha) was 1.7, the “% Stand Reduct'n 10 DAI” value (black cutworm larvae; soil granule banded 30 g/ha) was 0.0% and the “Plant Defol. 10 DAI” value (black cutworm larvae; soil granule banded 30 g/ha) was 0.3. The “% Stand Reduct'n 3 DAI” value (black cutworm larvae; soil granule in-furrow 30 g/ha) was 33.9%, the “Plant Defol. 3 DAI” value (black cutworm larvae; soil granule in-furrow 30 g/ha) was 5.0 and the “% Stand Reduct'n 7 DAI” value (black cutworm larvae; soil granule in-furrow 30 g/ha) was 48.0%. For the same compound, the “Plant Defol. 7 DAI” value (black cutworm larvae; soil granule in-furrow 30 g/ha) was 6.0, the “% Stand Reduct'n 10 DAI” value (black cutworm larvae; soil granule in-furrow 30 g/ha) was 48.0% and the “Plant Defol. 10 DAI” value (black cutworm larvae; soil granule in-furrow 30 g/ha) was 5.3. The “Vigor at 12 DAP” value (corn plants; soil granule (FORCE 3GR) banded 30 g/ha) was 8.7 and the “Vigor at 12 DAP” value (corn plants; soil granule (FORCE 3GR) in-furrow 30 g/ha) was 9.0.
For CC1(C)[C@H](C(=O)O[C@H](C#N)c2cccc(Oc3ccccc3)c2)[C@@H]1/C=C(\Cl)C(F)(F)F [λ-cyhalothrin, [1 alpha (s), 3 alpha(z)]-cyano(3-phenoxyphenyl) methyl-3-(2-chloro-3,3,3-trifluoro-1-propenyl)-2,2-dimethylcyclopropane carboxylate], the “% Stand Reduct'n 3 DAI” value (black cutworm larvae; seed treatment 125 g/100 kg) was 13.9%, the “Plant Defol. 3 DAI” value (black cutworm larvae; seed treatment 125 g/100 kg) was 4.3 and the “% Stand Reduct'n 7 DAI” value (black cutworm larvae; seed treatment 125 g/100 kg) was 16.7%. The “Plant Defol. 7 DAI” value (black cutworm larvae; seed treatment 125 g/100 kg) was 5.0, the “% Stand Reduct'n 10 DAI” value (black cutworm larvae; seed treatment 125 g/100 kg) was 19.4% and the “Plant Defol. 10 DAI” value (black cutworm larvae; seed treatment 125 g/100 kg) was 3.3. The “% Stand Reduct'n 3 DAI” value (black cutworm larvae; seed treatment 250 g/100 kg) was 3.0%, the “Plant Defol. 3 DAI” value (black cutworm larvae; seed treatment 250 g/100 kg) was 3.7 and the “% Stand Reduct'n 7 DAI” value (black cutworm larvae; seed treatment 250 g/100 kg) was 3.0%. The “% Stand Reduct'n 7 DAI” value (black cutworm larvae; seed treatment 250 g/100 kg, listed as lambda-cyhalothrin) was 3%, the “Plant Defol. 7 DAI” value (black cutworm larvae; seed treatment 250 g/100 kg) was 2.7 and the “% Stand Reduct'n 10 DAI” value (black cutworm larvae; seed treatment 250 g/100 kg) was 3.0%. The “Plant Defol. 10 DAI” value (black cutworm larvae; seed treatment 250 g/100 kg) was 1.7, the “% Stand Reduct'n 3 DAI” value (black cutworm larvae; seed treatment 500 g/100 kg) was 0.0% and the “Plant Defol. 3 DAI” value (black cutworm larvae; seed treatment 500 g/100 kg) was 2.0. The “% Stand Reduct'n 7 DAI” value (black cutworm larvae; seed treatment 500 g/100 kg) was 0.0%, the “% Stand Reduct'n 7 DAI” value (black cutworm larvae; seed treatment 500 g/100 kg, listed as lambda-cyhalothrin) was 0% and the “Plant Defol. 7 DAI” value (black cutworm larvae; seed treatment 500 g/100 kg) was 2.3. For the same compound, the “% Stand Reduct'n 10 DAI” value (black cutworm larvae; seed treatment 500 g/100 kg) was 0.0%, the “Plant Defol. 10 DAI” value (black cutworm larvae; seed treatment 500 g/100 kg) was 1.0 and the “Vigor at 12 DAP” value (corn plants; seed treatment 125 g/100 kg) was 9.0. The “Vigor at 12 DAP” value (corn plants; seed treatment 250 g/100 kg) was 8.3 and the “Vigor at 12 DAP” value (corn plants; seed treatment 500 g/100 kg) was 8.3.
